Results as given in patent publication US20230112418A1, “COMPOUND AND RADIOACTIVE LABELING COMPOUND” (NIHON MEDI-PHYSICS CO., LTD., priority 2020, published 2023).

Assays:
[1] = compared with kidney value one hour after the injection; EJNMMI Res 2012, J Nucl Med 2017; cited from earlier work
[2] = system: LNCaP tumor transplanted mice; experiment: Suppression of tumor growth by 90Y-labeled compound; assay type: in vivo; settings: 3.7 MBq i.v., FIG. 8
Method: A saline solution (100 μL) of [^90Y]Y-PSMA-DA1 (3.7 MBq) or [^90Y]Y-PSMA-DB (3.7 MBq) obtained by the above-described method was injected into each of the LNCaP tumor transplanted mice via the tail vein thereof (n=7). As a control group, 100 μL of saline was injected into each of the LNCaP tumor transplanted mice via the tail vein thereof (n=7).
After the injection of the ^90Y-labeled compound, a tumor volume and a body weight were measured three times per week. The tumor volume was calculated based on a calculation formula “(tumor volume)=[(long side)×(short side)^2/2]”.

Row | SMILES | Accumulation in the kidney (literature) [1] | Time after injection at which a significant difference in tumor volume vs saline group was observed [2]
1 | O=C([O-])CN(CCN(CC(=O)[O-])Cc1cc(CCC(=O)NCCCCCC(=O)NCCCC[C@H](NC(=O)N[C@@H](CCC(=O)O)C(=O)O)C(=O)O)ccc1[O-])Cc1cc(CCC(=O)O)ccc1[O-].[68Ga+3].[OH3+] [[^68Ga]Ga-PSMA-11] | 139 % ID/g | –
2 | O=C([O-])CN1CCN(C(CCC(=O)NCCCC[C@H](NC(=O)N[C@@H](CCC(=O)O)C(=O)O)C(=O)O)C(=O)[O-])CCN(CC(=O)[O-])CCN(C(CCC(=O)Nc2ccccc2)C(=O)[O-])CC1.[90Y+3] (some centres unmarked) [[^90Y]Y-PSMA-DB] | – | ≥ 33 days
